Laboratory results taken from patent US8076103B2, “Eukaryotic expression system for the incorporation of stable isotopes into proteins” (The Board of Trustees of the Leland Stanford Junior …, priority 2007, dated 2011).

Target: T1, human β2AR (Homo sapiens, UniProt P07550)
T1 construct: made in house; host or cells: Trichoplusia ni larvae orally infected with occluded recombinant baculovirus; crude membrane fraction
Experiment: Saturation binding of [^3H]-dihydroalprenolol to T. ni membranes expressing β2AR
Conditions: 4 days after oral infection
Protocol: This vector was used to produce orally infectious occluded baculovirus as follows. Sf9 cells were infected with above vector and allowed to grow for approximately four days until their nuclei were filled with polyhedral inclusion bodies (PIBs). The cells were pelleted by centrifugation, and lysed by resuspension and douncing in SDS (0.5%). PIBs were pelleted from the lysate by a high-speed spin, washed with sodium chloride (500 mM), and resuspended in distilled water. T. ni larvae were infected with occluded baculovirus by applying drops of purified PIBs (˜10^7 PIBs per cube) to small cubes of insect diet. Newly molted 5th instar larvae (mass ˜100 mg) were starved for 6 hours and then permitted to feed on the infected diet. […] These larvae were frozen in liquid nitrogen and stored at −80° C. Larvae were subsequently lysed and a crude membrane fraction was prepared. Saturation binding was performed with [^3H]dihydroalprenolol, a βAR antagonist.

T1 sequence (P07550 whole entry): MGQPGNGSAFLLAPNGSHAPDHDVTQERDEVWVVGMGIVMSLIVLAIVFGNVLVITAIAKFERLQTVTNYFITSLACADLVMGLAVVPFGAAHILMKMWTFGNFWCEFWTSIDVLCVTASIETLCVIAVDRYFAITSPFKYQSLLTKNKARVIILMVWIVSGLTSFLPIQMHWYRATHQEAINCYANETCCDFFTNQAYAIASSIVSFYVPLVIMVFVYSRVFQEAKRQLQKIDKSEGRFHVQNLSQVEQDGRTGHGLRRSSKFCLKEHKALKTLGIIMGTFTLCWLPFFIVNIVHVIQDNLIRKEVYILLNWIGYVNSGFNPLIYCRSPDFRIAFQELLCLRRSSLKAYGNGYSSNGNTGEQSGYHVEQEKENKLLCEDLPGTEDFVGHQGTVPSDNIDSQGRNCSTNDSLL

- Bmax: 16 pmol/mg total protein
- Kd: 1.6 nM
Structure (SMILES): CCCc1ccccc1OCC(O)CNC(C)C (centres unmarked) [[^3H]-dihydroalprenolol]
